Data: patent publication US20230141603A1, “BENZODIAZEPINE DERIVATIVES AS GABA A GAMMA1 PAM” (Hoffmann-La Roche Inc., priority 2021, published 2023)

What was measured:
[1] = biological target: T1, h-GABAA α1β2γ1 (Homo sapiens, UniProt P14867+Q8N1C3); experiment: Radioligand binding assay, [3H]RO7239181 competition, HEK293F membranes
T1 construct: expressed in transfected cells; host or cells: HEK293F cells (ThermoFisher R79007), membranes
T1 sequence (P14867 28-456): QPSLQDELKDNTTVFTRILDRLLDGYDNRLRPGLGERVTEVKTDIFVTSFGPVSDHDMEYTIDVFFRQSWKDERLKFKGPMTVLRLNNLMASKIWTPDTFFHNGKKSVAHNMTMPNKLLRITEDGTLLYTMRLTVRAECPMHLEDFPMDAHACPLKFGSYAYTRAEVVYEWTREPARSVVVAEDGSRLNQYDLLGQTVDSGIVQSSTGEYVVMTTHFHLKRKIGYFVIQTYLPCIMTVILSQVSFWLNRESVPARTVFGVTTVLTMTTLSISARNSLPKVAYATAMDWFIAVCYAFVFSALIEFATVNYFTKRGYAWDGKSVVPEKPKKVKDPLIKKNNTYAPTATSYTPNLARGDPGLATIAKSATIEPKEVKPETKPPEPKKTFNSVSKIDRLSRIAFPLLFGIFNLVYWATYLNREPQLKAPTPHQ
T1 sequence (P47870 25-512 partner limits assumed): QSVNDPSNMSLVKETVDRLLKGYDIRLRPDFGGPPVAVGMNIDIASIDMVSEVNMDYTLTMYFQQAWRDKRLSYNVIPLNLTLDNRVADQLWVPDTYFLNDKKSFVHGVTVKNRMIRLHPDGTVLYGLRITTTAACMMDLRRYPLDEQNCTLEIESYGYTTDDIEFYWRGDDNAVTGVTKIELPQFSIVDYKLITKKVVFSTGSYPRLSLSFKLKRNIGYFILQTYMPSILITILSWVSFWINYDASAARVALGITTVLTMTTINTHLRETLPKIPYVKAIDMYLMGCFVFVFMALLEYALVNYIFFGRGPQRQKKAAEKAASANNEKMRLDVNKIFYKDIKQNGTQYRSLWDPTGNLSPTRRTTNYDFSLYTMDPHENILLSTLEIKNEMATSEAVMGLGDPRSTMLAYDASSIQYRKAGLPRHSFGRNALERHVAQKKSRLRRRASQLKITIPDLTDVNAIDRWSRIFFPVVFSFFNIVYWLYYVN
T1 sequence (Q8N1C3 36-465): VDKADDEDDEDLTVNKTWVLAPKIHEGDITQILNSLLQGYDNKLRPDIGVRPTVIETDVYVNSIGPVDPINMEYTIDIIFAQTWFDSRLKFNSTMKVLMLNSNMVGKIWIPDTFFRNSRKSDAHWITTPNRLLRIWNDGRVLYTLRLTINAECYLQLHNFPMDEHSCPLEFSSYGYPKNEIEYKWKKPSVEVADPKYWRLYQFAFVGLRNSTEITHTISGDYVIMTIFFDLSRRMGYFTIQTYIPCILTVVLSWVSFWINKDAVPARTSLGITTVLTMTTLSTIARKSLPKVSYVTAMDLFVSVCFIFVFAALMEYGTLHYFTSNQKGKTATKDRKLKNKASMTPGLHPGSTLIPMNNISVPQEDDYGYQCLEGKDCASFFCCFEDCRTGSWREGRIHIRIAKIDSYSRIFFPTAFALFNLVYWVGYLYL
Method: (§1) The affinity of compounds at GABAA γ1 subunit-containing receptors was measured by competition for [^3H]RO7239181 (67.3 Ci/mmol; Roche) binding to membranes from HEK293F cells (ThermoFisher R79007) expressing human (transiently transfected) receptors of composition […], α2β2γ1, α1β2γ1.
(§2) Harvested pellets from HEK293F cells expressing the different GABAA receptor subtypes were resuspended in Mannitol Buffer pH 7.2-7.4 (Mannitol 0.29M, Triethylamine 10 mM, Acetic acid 10 mM, EDTA 1 mM plus protease inhibitors (20 tablets Complete, Roche Diagnostics Cat. No. 05 056 489 001 per liter)), washed two times and then resuspended at 1:10 to 1:15 dilution in the same buffer. Cell disruption was performed by stirring the suspension in a Parr vessel #4637 at 435 psi for 15 minutes, and then the suspensions were centrifuged at 1000×g for 15 minutes at 4° C. (Beckman Avanti J-HC; rotor JS-4.2). The supernatant (S1) was transferred in a 21 Schott flask and the pellet (P1) was resuspended with Mannitol Buffer up to 175 ml. The resuspended pellet was transferred into a 250 ml Corning centrifugal beaker and centrifuged at 1500×g for 10 minutes at 4° C. (Beckman Avanti J-HC; rotor JS-4.2). The supernatant (S1) was then transferred in the 21 Schott flask and the pellet was discarded. The supernatants (S1) were centrifuged in 500 ml Beckman polypropylene centrifugal beaker at 15′000×g for 30 minutes at 4° C. (Beckman Avanti J-20 XP; rotor JLA-10.500). The pellet (P2) was resuspended with Mannitol Buffer 1:1 and frozen at −80° C. The supernatant (S2) was centrifuged in 100 ml Beckman polypropylene centrifugal tubes at 48000×g for 50 minutes at 4° C. (Beckman Avanti J-20 XP; rotor JA-18). The supernatant (S3) was discarded and the pellet (P3) was resuspended with 1:1 Mannitol Buffer. The P2 and P3 protein concentration was determined with the BIORAD Standard assay method with bovine serum albumin as standard and measured on the NANO-Drop 1000. The membrane suspension was aliquots (500 μl per tube) and stored at −80° C. until required. Membrane homogenates were resuspended and polytronised (Polytron PT1200E Kinematica AG) in Potassium Phosphate 10 mM, KCl 100 mM binding buffer at pH 7.4 to a final assay concentration determined with a previous experiment.
(§3) Assays were incubated to equilibrium for 1 hour at 4° C. and then, membranes were filtered onto unifilter (96-well white microplate with bonded GF/C filters preincubated 20-50 minutes in 0.3% Polyethylenimine) with a Filtermate 196 harvester (Packard BioScience) and washed 4 times with cold Potassium Phosphate 10 mM pH 7.4, KCl 100 mM binding buffer. After drying, filter-retained radioactivity was detected by liquid scintillation counting. Ki values were calculated using Excel-Fit (Microsoft) and are the means of two determinations.

[2] = biological target: T2, h-GABAA α1β3γ2 (Homo sapiens, UniProt P14867+P18507); experiment: Radioligand binding assay, [3H]Flumazenil competition, HEK293F membranes; settings: for LogSel / γ2/γ1 Selectivity Ratio: Table 3; for LogSel: Log[Ki α1β3γ2 (nM)/Ki α2β2γ1 (nM)]; for γ2/γ1 Selectivity Ratio: Ki α1β3γ2 (nM)/Ki α2β2γ1 (nM)
T2 construct: expressed in transfected cells; host or cells: HEK293F cells, membranes
Method: The affinity of compounds at GABAA γ2 subunit-containing receptors was measured by competition for [^3H]Flumazenil (81.1 Ci/mmol; Roche) binding to HEK293F cells expressing human (transiently transfected) receptors of composition α1β3γ2.
Harvested pellets from HEK293F cells expressing the different GABAA γ2 receptor subtypes were resuspended in Mannitol Buffer pH 7.2-7.4 and processed as described above for the cells expressing the GABAA γ1 subunit-containing receptors.
Assays were incubated to equilibrium for 1 hour at 4° C. and harvested onto GF/C uni-filters (Packard) by filtration using a Packard harvester and washing with ice-cold wash buffer (50 mM Tris; pH 7.5). After drying, filter-retained radioactivity was detected by liquid scintillation counting. Ki values were calculated using Excel-Fit (Microsoft) and are the means of two determinations.

[3] = biological target: T3, h-GABAA α2β2γ1 (Homo sapiens, UniProt P47869+Q8N1C3); experiment: Radioligand binding assay, [3H]RO7239181 competition, HEK293F membranes; set-up: signal peptide of human GABAA α5 subunit (Met1 to Ser31), replacing the α2 signal peptide (N); expressed in transfected cells; host or cells: HEK293F cells (ThermoFisher R79007), membranes
T3 sequence (P47869 29-451): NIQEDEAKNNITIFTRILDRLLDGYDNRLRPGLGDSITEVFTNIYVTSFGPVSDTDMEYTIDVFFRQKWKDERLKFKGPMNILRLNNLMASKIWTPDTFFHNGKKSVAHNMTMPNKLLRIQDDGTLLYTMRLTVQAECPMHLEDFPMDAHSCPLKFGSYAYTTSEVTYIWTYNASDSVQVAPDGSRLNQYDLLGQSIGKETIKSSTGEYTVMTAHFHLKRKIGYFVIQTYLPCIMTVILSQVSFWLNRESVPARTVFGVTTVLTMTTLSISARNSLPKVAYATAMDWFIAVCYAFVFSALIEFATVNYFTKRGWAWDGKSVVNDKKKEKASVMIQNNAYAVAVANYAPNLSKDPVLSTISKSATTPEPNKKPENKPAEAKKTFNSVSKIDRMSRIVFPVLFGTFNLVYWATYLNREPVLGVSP
T3 sequence (P47870 25-512 partner limits assumed): T1 sequence (P47870 25-512 partner limits assumed)
T3 sequence (Q8N1C3 36-465): T1 sequence (Q8N1C3 36-465)
Method: as §1, §2, §3

[4] = biological target: T3, h-GABAA α2β2γ1; experiment: Two-electrode voltage clamp electrophysiology in Xenopus oocytes, modulation of GABA EC20 current; format: cell-based; set-up: host or cells: Xenopus laevis oocytes, RNA micro-injection; settings: α2β2γ1 GABAA receptor subtype expressing oocytes; reference PAMs
Method: Xenopus laevis oocytes at maturation stages V-VJ were used for the expression of cloned mRNA encoding GABAA receptor subunits. Oocytes ready for RNA micro-injection were bought from Ecocyte, Castrop-Rauxel, Germany and stored in modified Barth's medium (composition in mM: NaCl 88, KCl 1, NaHCO3 2.4, HEPES 10, MgSO4 0.82, CaNO3 0.33, CaCl2 0.33, pH=7.5) at 20° C. until the experiment.
Oocytes were plated in 96-well plates for microinjection using the Roboinject automated instrument (MultiChannelSystems, Reutlingen, Germany). Approximately 50 nL of an aqueous solution containing the RNA transcripts for the subunits of the desired GABAA receptor subtype was injected into each oocyte. […] Oocytes were kept in modified Barth's medium (composition in mM: NaCl 88, KCl 1, NaHCO3 […], HEPES 10, MgSO4 0.82, CaNO3 0.33, CaCl2 0.33, pH=7.5) at 20° C. until the experiment.
Electrophysiological experiments were performed using the Roboocyte instrument (MultiChannelSystems, Reutlingen, Germany) on days 3 to 5 after the micro-injection of mRNA. During the experiment the oocytes were constantly superfused by a solution containing (in mM) NaCl 90, KCl 1, HEPES 5, MgCl2 1, CaCl2 1 (pH 7.4). Oocytes were impaled by two glass microelectrodes (resistance: 0.5-0.8 MΩ) which were filled with a solution containing KCl 1M+K-acetate 1.5 M and voltage-clamped to −80 mV. The recordings were performed at room temperature using the Roboocyte two-electrode voltage clamp system (Multichannelsystem). After an initial equilibration period of 1.5 min GABA was added for 1.5 min at a concentration evoking approximately 20% of a maximal current response (EC20). After another rest interval of 2.5 min GABA was again added evoking a response of similar amplitude and shape. […] Current traces were recorded at a digitization rate of 10 Hz during and shortly before and after the GABA application.
Each compound and concentration was tested on at least 3 oocytes. Different oocytes were used for different compound concentrations.
For the analysis, the digitized current traces of the first and second GABA response were superimposed and, if necessary, rescaled to equal maximal amplitudes. The ratio between the two responses during the time interval of test compound application was calculated point by point. The extremum of the resulting “ratio trace” was taken as the efficacy (“Fold increase”) of the compound expressed as “% modulation of GABA EC20” (100*(Fold increase−1)).

SMILES | Ki [1] [nM] | Ki [2] [nM] | LogSel [2] | Ki [3] [nM] | γ2/γ1 Selectivity Ratio [2] | potentiation of the GABA-induced current [4] [%]
Cc1nnc2n1-c1ccc(Cl)cc1C(c1ccccc1)=NC2 [Alprazolam, reference compound] | 5920 | 19.6 | −2.3 | 3940 |  | 
Clc1ccc2c(c1)C(c1ccccc1)=NCc1nncn1-2 [Estazolam, reference compound] |  | 28.4 | −2.0 | 3180 |  | 
Cc1nnc2n1-c1ccc(Br)cc1C(c1c(F)cccc1F)=NC2 [RE-A, 8-bromo-6-(2,6-difluorophenyl)-1-methyl-4H-[1,2,4]triazolo[4,3-a][1,4]benzodiazepine, reference compound] |  | 5.6 | −0.74 | 32.1 | 0.18 | 
Cc1nnc2n1-c1ccc(C(F)(F)F)cc1C(c1c(F)cccc1F)=NC2 [RE-B, 6-(2,6-difluorophenyl)-1-methyl-8-(trifluoromethyl)-4H-[1,2,4]triazolo[4,3-a][1,4]benzodiazepine, reference compound] |  | 15.6 | −0.64 | 68.4 | 0.23 | 
Cc1nnc2n1-c1ccccc1C(c1c(F)cccc1F)=NC2 [RE-C, 6-(2,6-difluorophenyl)-1-methyl-4H-[1,2,4]triazolo[4,3-a][1,4]benzodiazepine, reference compound] |  | 5.8 | −2.0 | 627 | 0.0092 | 
Cc1nnc2n1-c1cccc(Cl)c1C(c1c(F)cccc1F)=NC2 [RE-G, 7-chloro-6-(2,6-difluorophenyl)-1-methyl-4H-[1,2,4]triazolo[4,3-a][1,4]benzodiazepine, reference compound] |  | 302 | 0.99 | 30.8 | 9.8 | 
Cc1nnc2n1-c1ccc(Cl)cc1C(c1ccccc1Cl)=NC2 [Triazolam, reference compound] |  |  | −1.5 |  |  | ~60
